According to US9487752B2, “Priming of pluripotent stem cells for neural differentiation” (Cellular Dynamics International, Inc., priority 2011, dated 2016):

B1: FGF8: fibroblast growth factor 8, reported as an endogenous neural inducer (protein, UniProt P55075 23-233, looked up)
Fibroblast growth factor 8: QEGPGRGPALGRELASLFRAGREPQGVSQQHVREQSLVTDQLSRRLIRTYQLYSRTSGKHVQVLANKRINAMAEDGDPFAKLIVETDTFGSRVRVRGAETGLYICMNKKGKLIAKSNGKGKDCVFTEIVLENNYTALQNAKYEGWYMAFTRKGRPRKGSKTRQHQREVHFMKRLPRGHHTTEQSLRFEFLNYPPFTRSLRGSQRTWAPEPR

What was measured:
Type in all cases: cell-based
iPS cell line 8004 [1] = assay: Neuron purity of iPS cell line 8004 by TUJ1/Nestin flow cytometry staining; conditions: 10 μM SB-431542 on Days −2, −1, 0, and 1; Day 28
Description: (§1) iPS cell line 8004 was differentiated using the procedure of Example 3 with and without 10 μM SB-431542 added to culture medium on Days −2, −1, 0, and 1. On Day 28, neuron purity as determined by TUJ1/Nestin flow cytometry staining was 80% without SB-431542 and 97% with SB-431542. Beginning on Day 30 of the. procedure, cells were fed 90% 1× DMEM-F12/10% FBS every 7 days. Astrocyte outgrowth was first detected on Day 45. On Day 48, cultures were assayed by flow cytometry for astrocyte purity using GFAP as a marker for astrocytes. […] In summary, the methods detailed herein provide for a method to produce cultures of high purity astrocytes in a time efficient manner relative to existing astrocyte differentiation methods.

iPSC line (2.042) = assay: Neural differentiation of iPSC line 2.042, neuron purity by βIII-tubulin/Nestin double stains; conditions: only one of 10 μM SB-431542 or 1 μM dorsomorphin in medium on Days −2, −1, 0 and 1; Day 28 (FIG. 3C)
iPS cell line 8004 [2] = assay: Astrocyte purity of iPS cell line 8004 cultures by flow cytometry using GFAP as marker; conditions: 10 μM SB-431542 on Days −2, −1, 0, and 1; fed 10% FBS from Day 30; Day 48
Description: as §1

iPSC line 1729c4 = assay: Neural differentiation of iPSC line 1729c4, purity by flow cytometry with βIII-tubulin/Nestin double stains; conditions: 10 ng/mL FGF8 present on Day −3; Day 27
Excerpt: iPS cells were maintained on Matrigel in TeSR medium (Stem Cell Technologies) and sodium citrate split one passage prior to aggregate formation and grown in T150 flasks, but can be scaled for starting cells in other culture formats. Alternate pluripotent cell culture media (such as E8 media: Chen et al., 2011), containing varying concentrations of TGFβ and/or bFGF, can be used to optimize neural differentiation of different iPS cell lines or clones. Pluripotent cell cultures were then “primed” for differentiation three or four days prior to aggregate formation. […]
On Day 0 of the neuron differentiation process (specifically, aggregate formation), cells are harvested from T150 flasks (up to five flasks at one time) and, after media is aspirated, 12 mL of warm TrypLE is added to each flask and the cells are incubated at 37° C. for 7 minutes. […] The tubes may be combined and cells are counted (CEDEX HiRES cell counter). […] Diluted cell stock is counted (CEDEX HiRES cell counter). […]

Row | Molecule | neuron purity by TUJ1/Nestin flow cytometry staining (iPS cell line 8004 [1]) | neuron purity by βIII-tubulin/Nestin double stains compared to both inhibitors (iPSC line (2.042)) | GFAP positive cells (astrocyte purity) (iPS cell line 8004 [2]) | βIII-tubulin/Nestin positive cells (iPSC line 1729c4)
1 | NC(=O)c1ccc(-c2nc(-c3ccc4c(c3)OCO4)c(-c3ccccn3)[nH]2)cc1 [SB-431542] | 97% | similarly high neuron purities | 56% | 
2 | B1 |  |  |  | 90%
